Data reported in patent publication US7915276B2, “Berberrubine derivatives having antifungal activities” (priority 2006, dated 2011).

Assays:
[1] = target: T1, chitin synthase 1 of Candida albicans chs2 Δ chs 3 Δ (Candida albicans, UniProt P23316); assay: In vitro enzyme assay for chitin synthase 1 of Candida albicans (enzyme 1); assay type: biochemical; settings: relative to polyoxin D (50% inhibitory activity = value 5)
T1 construct: Crude enzyme was prepared using the Candida albicans chs2 Δ chs 3 Δ mutant; endogenous in cells; host or cells: Candida albicans chs2Δ/chs2Δ chs3Δ/chs3Δ mutant; 130,000 x g membrane pellet
Summary of the method: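 Trypsin-activated crude membrane chitin synthase 1 from C. albicans chs2Δ chs3Δ was incubated 90 min at 30 °C with 1.1 mM UDP-[14C]GlcNAc and 2 mM cobalt acetate in Tris-HCl pH 7.5. Filtered TCA precipitate was counted by scintillation; values are scores 1–8 against polyoxin D (5 = same concentration).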

[2] = target: T2, chitin synthase 2 of Saccharomyces cerevisiae ECY38-38A(pAS6) (Saccharomyces cerevisiae, UniProt P14180); assay: In vitro enzyme assay for chitin synthase 2 of Saccharomyces cerevisiae (enzyme 2); assay type: biochemical; settings: relative to polyoxin D (50% inhibitory activity = value 5)
T2 construct: made in house; host or cells: Saccharomyces cerevisiae ECY38-38A (chs1-23 chs2::LEU2 cal1/csd2) carrying plasmid pAS6, grown in galactose medium; 130,000 x g membrane pellet
Summary of the method: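 Values are scores: 5 means 50% inhibition at the same concentration as polyoxin D, lower scores 2- to 16-fold higher concentration, higher scores ½ to ⅛. Radiolabel from 1.1 mM UDP-[14C]-GlcNAc was incorporated into TCA-insoluble chitin over 90 min at 30 °C (pH 7.5 Tris, 2 mM Co2+). The enzyme was a trypsin-activated membrane fraction from CHS2-only S. cerevisiae ECY38-38A(pAS6).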

[3] = tested on: Aspergillus flavus ATCC 64025; assay: In vitro antifungal activity (MIC), NCCLS method; assay type: cell-based; settings: for MIC (minimum inhibitory concentration): 48 hours
Summary of the method: (§1)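 Two-fold dilutions, final inoculum 5×10^2–2.5×10^3 cell/mL, NCCLS protocol; 48 h culture for these strains. MIC = minimum inhibitory concentration.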

[4] = tested on: Aspergillus fumigatus ATCC 16424; assay: In vitro antifungal activity (MIC), NCCLS method; assay type: cell-based; settings: for MIC (minimum inhibitory concentration): 48 hours
Summary of the method: as §1

[5] = tested on: Aspergillus terreus ATCC 46941; assay: In vitro antifungal activity (MIC), NCCLS method; assay type: cell-based; settings: for MIC (minimum inhibitory concentration): 48 hours
Summary of the method: as §1

[6] = tested on: Candida albicans A207 (clinical isolate); assay: In vitro antifungal activity (MIC), NCCLS method; assay type: cell-based; settings: 48 hours
Summary of the method: (§2)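 Broth microdilution per NCCLS: two-fold serial dilutions of test compound inoculated with fungal suspension at a final 5×10^2 to 2.5×10^3 cell/mL. Strains other than Cryptococcus neoformans were incubated 48 hours before MIC reading.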

[7] = tested on: Candida albicans ATCC 10231; assay: In vitro antifungal activity (MIC), NCCLS method; assay type: cell-based; settings: for MIC (minimum inhibitory concentration): 48 hours
Summary of the method: (§3)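 Broth MIC by NCCLS two-fold dilution, final inoculum 5×10^2 to 2.5×10^3 cell/mL. Candida and Mucor strains incubated 48 hours.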

[8] = tested on: Candida glabrata ATCC 48435; assay: In vitro antifungal activity (MIC), NCCLS method; assay type: cell-based
Summary of the method: as §3

[9] = tested on: Candida krusei ATCC 6258; assay: In vitro antifungal activity (MIC), NCCLS method; assay type: cell-based; settings: for MIC (minimum inhibitory concentration): 48 hours
Summary of the method: as §3

[10] = tested on: Candida lusitaniae ATCC 42720; assay: In vitro antifungal activity (MIC), NCCLS method; assay type: cell-based; settings: for MIC (minimum inhibitory concentration): 48 hours
Summary of the method: as §3

[11] = tested on: Candida parapsilosis ATCC 34136; assay: In vitro antifungal activity (MIC), NCCLS method; assay type: cell-based
Summary of the method: as §3

[12] = tested on: Candida tropicalis ATCC 13803; assay: In vitro antifungal activity (MIC), NCCLS method; assay type: cell-based; settings: for MIC (minimum inhibitory concentration): 48 hours
Summary of the method: as §3

[13] = tested on: Cryptococcus neoformans ATCC 36556; assay: In vitro antifungal activity (MIC), NCCLS method; assay type: cell-based; settings: 72 hours; for MIC (minimum inhibitory concentration): RPMI 1640 medium
Summary of the method: as §2

[14] = tested on: Mucor ramosissimus ATCC 90286; assay: In vitro antifungal activity (MIC), NCCLS method; assay type: cell-based; settings: for MIC (minimum inhibitory concentration): 48 hours
Summary of the method: as §3

[15] = Candida glabrata ATCC 48435, 48 hours
[16] = Candida parapsilosis ATCC 34136, 48 hours

T1 sequence (P23316 whole entry, stated change not applied): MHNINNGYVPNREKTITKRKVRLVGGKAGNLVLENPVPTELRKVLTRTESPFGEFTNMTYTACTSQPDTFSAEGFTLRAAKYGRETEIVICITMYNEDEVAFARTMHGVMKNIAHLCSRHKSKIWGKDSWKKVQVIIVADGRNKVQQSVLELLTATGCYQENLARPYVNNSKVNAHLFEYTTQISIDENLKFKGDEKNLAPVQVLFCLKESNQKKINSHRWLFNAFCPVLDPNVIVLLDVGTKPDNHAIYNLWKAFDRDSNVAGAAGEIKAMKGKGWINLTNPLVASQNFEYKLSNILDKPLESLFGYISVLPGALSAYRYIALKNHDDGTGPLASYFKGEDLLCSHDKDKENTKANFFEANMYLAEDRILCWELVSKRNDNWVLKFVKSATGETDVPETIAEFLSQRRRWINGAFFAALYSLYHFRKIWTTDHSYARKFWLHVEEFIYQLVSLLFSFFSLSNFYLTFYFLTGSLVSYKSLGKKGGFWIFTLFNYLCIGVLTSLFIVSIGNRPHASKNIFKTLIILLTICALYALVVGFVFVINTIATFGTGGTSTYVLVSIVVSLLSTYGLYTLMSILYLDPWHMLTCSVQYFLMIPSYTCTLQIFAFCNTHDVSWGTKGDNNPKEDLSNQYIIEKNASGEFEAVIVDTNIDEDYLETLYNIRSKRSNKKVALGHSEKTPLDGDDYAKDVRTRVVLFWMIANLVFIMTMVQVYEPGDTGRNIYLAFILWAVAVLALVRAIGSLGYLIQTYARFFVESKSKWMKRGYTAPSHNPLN
T2 sequence (P14180 whole entry): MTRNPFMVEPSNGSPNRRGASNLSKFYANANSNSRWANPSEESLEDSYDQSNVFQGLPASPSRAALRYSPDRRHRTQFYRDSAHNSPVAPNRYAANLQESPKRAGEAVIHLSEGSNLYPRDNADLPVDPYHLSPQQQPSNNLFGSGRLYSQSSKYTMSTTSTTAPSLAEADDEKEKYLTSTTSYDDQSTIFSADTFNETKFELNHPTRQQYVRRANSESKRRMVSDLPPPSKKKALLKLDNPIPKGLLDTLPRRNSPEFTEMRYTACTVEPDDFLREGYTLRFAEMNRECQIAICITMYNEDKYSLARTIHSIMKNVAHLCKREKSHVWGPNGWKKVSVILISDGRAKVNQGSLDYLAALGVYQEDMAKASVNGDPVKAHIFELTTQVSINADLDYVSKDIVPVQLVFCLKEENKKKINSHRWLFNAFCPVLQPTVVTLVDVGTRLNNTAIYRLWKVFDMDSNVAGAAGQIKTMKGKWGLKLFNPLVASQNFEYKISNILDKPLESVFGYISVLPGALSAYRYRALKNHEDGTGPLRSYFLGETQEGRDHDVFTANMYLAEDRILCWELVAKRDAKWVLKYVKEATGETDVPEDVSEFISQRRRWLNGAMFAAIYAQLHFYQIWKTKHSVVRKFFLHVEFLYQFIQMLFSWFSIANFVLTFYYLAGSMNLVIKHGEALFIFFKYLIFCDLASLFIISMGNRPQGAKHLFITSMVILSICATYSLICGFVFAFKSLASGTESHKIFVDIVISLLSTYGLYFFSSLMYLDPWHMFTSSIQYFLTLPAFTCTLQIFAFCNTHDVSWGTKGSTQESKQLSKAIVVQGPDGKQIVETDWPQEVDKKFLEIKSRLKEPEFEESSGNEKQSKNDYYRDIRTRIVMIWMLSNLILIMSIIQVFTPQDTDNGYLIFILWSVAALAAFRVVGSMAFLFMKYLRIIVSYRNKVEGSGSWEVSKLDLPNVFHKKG

| Compound | Relative activity Enzyme 1 [1] | Relative activity Enzyme 2 [2] | MIC (minimum inhibitory concentration) [3] [µg/mL] | MIC (minimum inhibitory concentration) [4] [µg/mL] | MIC (minimum inhibitory concentration) [5] [µg/mL] | MIC (minimum inhibitory concentration) [6] [µg/mL] | MIC (minimum inhibitory concentration) [7] [µg/mL] | MIC (minimum inhibitory concentration) [8, 15] [µg/mL] | MIC (minimum inhibitory concentration) [9] [µg/mL] | MIC (minimum inhibitory concentration) [10] [µg/mL] | MIC (minimum inhibitory concentration) [11, 16] [µg/mL] | MIC (minimum inhibitory concentration) [12] [µg/mL] | MIC (minimum inhibitory concentration) [13] [µg/mL] | MIC (minimum inhibitory concentration) [14] [µg/mL] | also measured |
| --- | --- | --- | --- | --- | --- | --- | --- | --- | --- | --- | --- | --- | --- | --- | --- |
| 13-(4-tert-Butylbenzyl)-9-O-allylberberrubine iodide [Compound No. 13] | 2 (Compounds having the inhibitory activity at 2-fold, 4-fold, 8-fold and 16-fold higher concentrations than that of polyoxin D were given the values of 4, 3, 2 and 1, respectively) | 5 (A compound having the same inhibitory activity as that of polyoxin D at the same concentration was given the value 5) | 8 | 8 | 8 | 1 | 1 | 8 | 2 | 2 | 4 | 1 | 2 | 4 | – |
| 13-(4-Isopropylbenzyl)-9-O-crotylberberrubine bromide [Compound No. 24] | 2 (Compounds having the inhibitory activity at 2-fold, 4-fold, 8-fold and 16-fold higher concentrations than that of polyoxin D were given the values of 4, 3, 2 and 1, respectively) | 5 (A compound having the same inhibitory activity as that of polyoxin D at the same concentration was given the value 5) | 8 | 2 | 4 | 0.5 | 0.5 | 4 | 1 | 1 | 4 | 0.5 | 1 | 4 | – |
| 13-(4-Isopropylbenzyl)-9-O-allylberberrubine chloride [Compound No. 55] | 3 (Compounds having the inhibitory activity at 2-fold, 4-fold, 8-fold and 16-fold higher concentrations than that of polyoxin D were given the values of 4, 3, 2 and 1, respectively) | 6 (compounds having the inhibitory activity at ½, ¼ and ⅛ lower concentrations than that of polyoxin D were given the values of 6, 7 and 8, respectively) | 8 | 8 | 8 | 1 | 1 | 8 | 2 | 2 | 4 | 1 | 2 | 4 | – |
| 13-(4-Isopropylbenzyl)-9-O-(4-isopropylbenzyl)berberrubine bromide [Compound No. 26] | 2 (Compounds having the inhibitory activity at 2-fold, 4-fold, 8-fold and 16-fold higher concentrations than that of polyoxin D were given the values of 4, 3, 2 and 1, respectively) | 5 (A compound having the same inhibitory activity as that of polyoxin D at the same concentration was given the value 5) | 8 | 4 | 8 | 1 | 1 | 2 | 2 | 4 | 8 | 1 | 2 | 8 | – |
| 13-(4-Isopropylbenzyl)-9-O-(4-tert-butylbenzyl)berberrubine chloride [Compound No. 57] | 2 (Compounds having the inhibitory activity at 2-fold, 4-fold, 8-fold and 16-fold higher concentrations than that of polyoxin D were given the values of 4, 3, 2 and 1, respectively) | 5 (A compound having the same inhibitory activity as that of polyoxin D at the same concentration was given the value 5) | 8 | 4 | 8 | 1 | 1 | 4 | 4 | 4 | 8 | 1 | 2 | 8 | – |
| COc1ccc2c(Cc3ccc(C(C)(C)C)cc3)c3[n+](cc2c1OC)CCc1cc2c(cc1-3)OCO2.[Cl-] [Comparative compound 1, reference compound] | 1 (Compounds having the inhibitory activity at 2-fold, 4-fold, 8-fold and 16-fold higher concentrations than that of polyoxin D were given the values of 4, 3, 2 and 1, respectively) | 3 (Compounds having the inhibitory activity at 2-fold, 4-fold, 8-fold and 16-fold higher concentrations than that of polyoxin D were given the values of 4, 3, 2 and 1, respectively) | – | – | – | – | – | – | – | – | – | – | – | – | MIC ([3]; ATCC64025, 48 hours, read-out: MIC (minimum inhibitory concentration)): > 128 µg/mL; MIC ([4]; ATCC16424, 48 hours, read-out: MIC (minimum inhibitory concentration)): 128 µg/mL; MIC ([5]; ATCC46941, 48 hours, read-out: MIC (minimum inhibitory concentration)): > 128 µg/mL; MIC ([6]; read-out: MIC (minimum inhibitory concentration)): 8 µg/mL; MIC ([7]; ATCC10231, 48 hours, read-out: MIC (minimum inhibitory concentration)): 4 µg/mL; antifungal activities (in words) ([8]; Candida glabrata): no antifungal activities; MIC ([8]; Nakaseomyces glabratus, ATCC48435, Candida glabrata ATCC 48435, 48 hours, read-out: MIC (minimum inhibitory concentration)): > 128 µg/mL; MIC ([9]; Pichia kudriavzevii, ATCC6258, 48 hours, read-out: MIC (minimum inhibitory concentration)): 16 µg/mL; MIC ([10]; Clavispora lusitaniae, ATCC42720, 48 hours, read-out: MIC (minimum inhibitory concentration)): 8 µg/mL; antifungal activities (in words) ([11]; Candida parapsilosis): no antifungal activities; MIC ([11]; Lodderomyces parapsilosis, ATCC34136, Candida parapsilosis ATCC 34136, 48 hours, read-out: MIC (minimum inhibitory concentration)): > 128 µg/mL; MIC ([12]; ATCC13803, 48 hours, read-out: MIC (minimum inhibitory concentration)): 2 µg/mL; MIC ([13]; ATCC36556, RPMI 1640 medium, read-out: MIC (minimum inhibitory concentration)): 8 µg/mL; MIC ([14]; ATCC90286, 48 hours, read-out: MIC (minimum inhibitory concentration)): 128 µg/mL |
| 13-(4-Isopropylbenzyl)-9-O-hexylberberrubine chloride [Compound No. 51] | 3 (Compounds having the inhibitory activity at 2-fold, 4-fold, 8-fold and 16-fold higher concentrations than that of polyoxin D were given the values of 4, 3, 2 and 1, respectively) | 6 (compounds having the inhibitory activity at ½, ¼ and ⅛ lower concentrations than that of polyoxin D were given the values of 6, 7 and 8, respectively) | 8 | 2 | 8 | 0.25 | 0.25 | 2 | 1 | 0.5 | 2 | 0.125 | 0.5 | 4 | – |
